Data taken from publication PMC7037548, “Microbial Transformation of Prenylquercetins by Mucor hiemalis” (Molecules, 2020).
≈ marks a conversion by molar mass, not a printed value.

Assay: Water solubility test
Format: physicochemical
Details: for solubility at 10 min: water, thermodynamic from solid
Description: The solubility of prenylquercetins and their glucosides were determined based on the previously reported method with some modifications. Briefly, each compound (4 mg) was dissolved in 1 mL of distilled water at room temperature followed by sonication for 10 min and centrifugation at 3600 rpm for 5 min at room temperature. Then the concentrations of the compounds in the supernatant were measured based on their peak areas utilizing calibration curves determined by the HPLC of authentic samples.

| SMILES | solubility at 10 min | Water solubility, comparison in words | Solubility (water solubility) (distilled water, room temperature, 4 mg in 1 mL, sonication 10 min, centrifugation, supernatant by HPLC) |
| --- | --- | --- | --- |
| CC(C)=CCc1c(O)cc(O)c2c(=O)c(O)c(-c3ccc(O)c(O)c3)oc12 [Compound 1, 8-prenylquercetin] | 0.013 mg/mL (≈ 35.1 µM) |  |  |
| CC(C)=CCc1cc(O)c(O)cc1-c1oc2cc(O)cc(O)c2c(=O)c1O [Compound 2, 6′-prenylquercetin] | 0.063 mg/mL (≈ 170 µM) |  |  |
| CC(C)=CCc1cc(O)c(O)cc1-c1oc2c(CC=C(C)C)c(O)cc(O)c2c(=O)c1O [Compound 3, 8,6′-diprenylquercetin] | 0.02 mg/mL (≈ 45.6 µM) |  |  |
| CC(C)=CCc1c(O[C@@H]2O[C@H](CO)[C@@H](O)[C@H](O)[C@H]2O)cc(O)c2c(=O)c(O)c(-c3ccc(O)c(O)c3)oc12 [Compound 4, 8-Prenylquercetin 7-O-β-D-glucopyranoside] | 0.501 mg/mL (≈ 941 µM) |  |  |
| CC(C)=CCc1c(O)cc(O)c2c(=O)c(O[C@@H]3O[C@H](CO)[C@@H](O)[C@H](O)[C@H]3O)c(-c3ccc(O)c(O)c3)oc12 [Compound 5, 8-Prenylquercetin 3-O-β-D-glucopyranoside] | 0.385 mg/mL (≈ 723 µM) |  |  |
| O=c1c(O)c(-c2ccc(O)c(O)c2)oc2cc(O)cc(O)c12 [Quercetin] |  |  | 0.036 mg/mL (≈ 119 µM) |

Further lines, with some results ahead:

| solubility at 10 min | Water solubility, comparison in words | SMILES | Solubility (water solubility) (distilled water, room temperature, 4 mg in 1 mL, sonication 10 min, centrifugation, supernatant by HPLC) |
| --- | --- | --- | --- |
| 1.98 mg/mL (≈ 3710 µM) |  | CC(C)=CCc1cc(O)c(O)cc1-c1oc2cc(O[C@@H]3O[C@H](CO)[C@@H](O)[C@H](O)[C@H]3O)cc(O)c2c(=O)c1O [Compound 6, 6′-Prenylquercetin 7-O-β-D-glucopyranoside] |  |
| 3.64 mg/mL (≈ 6830 µM) |  | CC(C)=CCc1cc(O[C@@H]2O[C@H](CO)[C@@H](O)[C@H](O)[C@H]2O)c(O)cc1-c1oc2cc(O)cc(O)c2c(=O)c1O [Compound 7, 6′-Prenylquercetin 4′-O-β-D-glucopyranoside] |  |
| > 4 mg/mL | higher solubility than metabolite 9 | CC(C)=CCc1cc(O[C@@H]2O[C@H](CO)[C@@H](O)[C@H](O)[C@H]2O)c(O)cc1-c1oc2c(CC=C(C)C)c(O[C@@H]3O[C@H](CO)[C@@H](O)[C@H](O)[C@H]3O)cc(O)c2c(=O)c1O [Compound 8, 8,6′-Diprenylquercetin 7,4′-O-β-D-diglucopyranoside] |  |
| 0.613 mg/mL (≈ 1020 µM) |  | CC(C)=CCc1cc(O)c(O)cc1-c1oc2c(CC=C(C)C)c(O[C@@H]3O[C@H](CO)[C@@H](O)[C@H](O)[C@H]3O)cc(O)c2c(=O)c1O [Compound 9, 8,6′-Diprenylquercetin 7-O-β-D-glucopyranoside] |  |
